Tests used:
[1] = system: Human immunodeficiency virus 1; assay: Antiviral activity against HIV1 IIIB infected in human MT4 cells assessed as inhibition of viral replication incubated for 3 to 7 days by MTT analysis; type: functional, organism-based; conditions: Human immunodeficiency virus 1, IIIB
[2] = Bioavailability in Sprague-Dawley rat at 2.5 mg/kg, IG measured upto 24 hrs by LC-MS/MS analysis; type: ADME, organism-based; conditions: in vivo, po
[3] = Cmax in Sprague-Dawley rat at 10 mg/kg, IG measured upto 24 hrs by LC-MS/MS analysis; type: ADME, organism-based; parameters: time < 24 hrs, dose 10 mg/kg, route ig; conditions: in vivo, po
[4] = Acute toxicity in Sprague-Dawley rat assessed as effect on lung damage at 500 to 2000 mg/kg, IG measured on day 15; type: organism-based; conditions: in vivo, po, 360 h, dose 500-2000 mg/kg, time 15 day
[5] = Apparent […] clearance in Sprague-Dawley rat at 5 mg/kg, iv measured upto 24 hrs by LC-MS/MS analysis; type: ADME, organism-based; conditions: in vivo
[6] = Half life in Sprague-Dawley rat at 5 mg/kg, iv measured upto 24 hrs by LC-MS/MS analysis; type: ADME, organism-based; conditions: in vivo
[7] = system: Human immunodeficiency virus 1; assay: Antiviral activity against HIV1 4755-5 infected in human C8166 cells assessed as inhibition of viral replication by measuring reduction in p24 antigen level incubated for 3 to 7 days by ELISA analysis; type: functional, organism-based; conditions: Human immunodeficiency virus 1, 4755-5, C8166
[8] = AUC (0 to t) in female Sprague-Dawley rat at 10 mg/kg, IG measured at 24 hrs LC-MS/MS analysis; type: ADME, organism-based; parameters: time 24 hrs, dose 10 mg/kg, route ig; conditions: in vivo, po
[9] = Toxicity in Sprague-Dawley rat assessed as death at 10 to 30 mg/kg, po administered once daily for 4 weeks and measured after 24 hrs post last dose; type: organism-based; conditions: in vivo, 696 h, dose 10-30 mg/kg
[10] = Half life in Sprague-Dawley rat at 10 mg/kg, IG measured upto 24 hrs by LC-MS/MS analysis; type: ADME, organism-based; conditions: in vivo, po
[11] = Toxicity in po dosed Sprague-Dawley rat assessed as NOAEL administered once daily for 4 weeks and measured after 24 hrs post last dose; type: organism-based; conditions: in vivo
[12] = system: Human immunodeficiency virus 1; assay: Antiviral activity against HIV1 WAN infected in human PBMC assessed as inhibition of viral replication by measuring reduction in p24 antigen level incubated for 3 to 7 days by ELISA analysis; type: functional, organism-based; conditions: Human immunodeficiency virus 1, WAN
[13] = AUC (0 to t) in male Sprague-Dawley rat at 30 mg/kg, IG measured at 0.5 hrs LC-MS/MS analysis; type: ADME, organism-based; parameters: dose 30 mg/kg, time 0.5 hrs, route ig; conditions: in vivo, po
[14] = Acute toxicity in Sprague-Dawley rat assessed as effect on kidney damage at 500 to 2000 mg/kg, IG measured on day 15; type: organism-based; conditions: in vivo, po, 360 h, dose 500-2000 mg/kg, time 15 day
[15] = system: Human immunodeficiency virus 1; assay: Antiviral activity against HIV1 VSV-G pseudotyped virus infected in human HEK293T cells assessed as inhibition of viral growth preincubated for 3 hrs followed by washout and further incubated with compound for 72 hrs by luciferase assay; type: functional, organism-based; conditions: Human immunodeficiency virus 1, HEK-293T
[16] = Acute toxicity in Sprague-Dawley rat assessed as effect on spleen damage at 500 to 2000 mg/kg, IG measured on day 15; type: organism-based; conditions: in vivo, po, 360 h, dose 500-2000 mg/kg, time 15 day
[17] = system: HEK-293T; assay: Cytotoxicity against HEK293T cells assessed as reduction in cell viability upto 100 uM MTT assay; type: toxicity, cell-based; conditions: human
[18] = AUC (0 to t) in male Sprague-Dawley rat at 30 mg/kg, IG measured at 24 hrs LC-MS/MS analysis; type: ADME, organism-based; parameters: time 24 hrs, dose 30 mg/kg, route ig; conditions: in vivo, po
[19] = AUC (0 to t) in female Sprague-Dawley rat at 100 mg/kg, IG measured at 24 hrs LC-MS/MS analysis; type: ADME, organism-based; parameters: time 24 hrs, dose 100 mg/kg, route ig; conditions: in vivo, po
[20] = Bioavailability in Sprague-Dawley rat at 10 mg/kg, IG measured upto 24 hrs by LC-MS/MS analysis; type: ADME, organism-based; conditions: in vivo, po
[21] = Toxicity in Sprague-Dawley rat assessed as effect on blood biochemistry at 10 to 30 mg/kg, po administered once daily for 4 weeks and measured after 24 hrs post last dose; type: organism-based; conditions: in vivo, 696 h, dose 10-30 mg/kg
[22] = system: Human immunodeficiency virus 1; assay: Antiviral activity against HIV-1 harboring protease V82F/[…] double mutant infected in human C8166 cells assessed as inhibition of viral replication by measuring reduction in p24 antigen level incubated for 3 to 7 days by ELISA analysis; type: functional, organism-based; conditions: Human immunodeficiency virus 1, C8166
[23] = Apparent oral clearance in Sprague-Dawley rat at 10 mg/kg, IG measured upto 24 hrs by LC-MS/MS analysis; type: ADME, organism-based; conditions: in vivo
[24] = Acute toxicity in Sprague-Dawley rat assessed as effect on heart damage at 500 to 2000 mg/kg, IG measured on day 15; type: organism-based; conditions: in vivo, po, 360 h, dose 500-2000 mg/kg, time 15 day
[25] = AUC (0 to t) in male Sprague-Dawley rat at 100 mg/kg, IG measured at 24 hrs LC-MS/MS analysis; type: ADME, organism-based; parameters: time 24 hrs, dose 100 mg/kg, route ig; conditions: in vivo, po
[26] = system: Human immunodeficiency virus 1; assay: Antiviral activity against HIV1 KIZ001 infected in human PBMC assessed as inhibition of viral replication by measuring reduction in p24 antigen level incubated for 3 to 7 days by ELISA analysis; type: functional, organism-based; conditions: Human immunodeficiency virus 1, KIZ001, PBMC
[27] = Tmax in Sprague-Dawley rat at 2.5 mg/kg, IG measured upto 24 hrs by LC-MS/MS analysis; type: ADME, organism-based; conditions: in vivo, po
[28] = Cmax in Sprague-Dawley rat at 5 mg/kg, iv measured upto 24 hrs by LC-MS/MS analysis; type: ADME, organism-based; parameters: time < 24 hrs, dose 5 mg/kg, route iv; conditions: in vivo
[29] = Selectivity index, ratio of CC50 for cytotoxicity against HEK293T cells assessed as reduction in cell viability by MTT assay to EC50 for antiviral activity against HIV1 VSV-G pseudotyped virus infected in human HEK293T cells assessed as inhibition of viral growth; type: toxicity, cell-based; conditions: read-out: Ratio CC50/EC50
[30] = Acute toxicity in Sprague-Dawley rat assessed as effect on liver damage at 500 to 2000 mg/kg, IG measured on day 15; type: organism-based; conditions: in vivo, po, 360 h, dose 500-2000 mg/kg, time 15 day
[31] = Cmax in Sprague-Dawley rat at 5 mg/kg, IG measured upto 24 hrs by LC-MS/MS analysis; type: ADME, organism-based; parameters: time < 24 hrs, dose 5 mg/kg, route ig; conditions: in vivo, po
[32] = Apparent oral clearance in Sprague-Dawley rat at 2.5 mg/kg, IG measured upto 24 hrs by LC-MS/MS analysis; type: ADME, organism-based; conditions: in vivo

C#C[C@]1(CO)O[C@@H](n2cnc3c(N)nc(F)nc32)[C@@H](F)[C@@H]1O
EC50 [1]: 1.22 nM
bioavailability [2]: 64.2%
Cmax [3]: 2110 ng/mL
Activity [4]: Non-Toxic
CL/F [5]: 16.4 mL/min/kg
half-life [6]: 1.8 h
EC50 [7]: 32.4 nM
AUC(0-t) at 24 h [8]: 6800 ng·h/mL
Activity [9]: Non-Toxic
half-life [10]: 2.3 h
NOAEL at 696 h [11]: 30 mg/kg
EC50 [12]: 14.4 nM
AUC(0-t) at 0.5 h [13]: 28200 ng·h/mL
Activity [14]: Non-Toxic
EC50 [15]: 0.9 nM
Activity [16]: Non-Toxic
Activity [17]: Non-Toxic
AUC(0-t) at 24 h [18]: 27100 ng·h/mL
AUC(0-t) at 24 h [19]: 82500 ng·h/mL
bioavailability [20]: 76.3%
Activity [21]: Non-Toxic
EC50 [22]: 6.75 nM
CL/F [23]: 21.2 mL/min/kg
Activity [24]: Non-Toxic
AUC(0-t) at 24 h [25]: 85800 ng·h/mL
EC50 [26]: 1.87 nM
Tmax [27]: 0.63 h
Cmax [28]: 10200 ng/mL
selectivity ratio [29]: > 111000
Activity [30]: Non-Toxic
Cmax [31]: 1230 ng/mL
CL/F [32]: 24.8 mL/min/kg

Source: ChEMBL document CHEMBL5360641, “4'-Ethynyl-2'-deoxy-2'-β-fluoro-2-fluoroadenosine: A Highly Potent and Orally Available Clinical Candidate for the Treatment of HIV-1 Infection” (J Med Chem, 2023)
